Test results published in US5843941A, “Ras farnesyl transferase inhibitors” (Genentech, Inc., priority 1994, dated 1998).

Tests used:
[1] = test system: untransformed rat-1 fibroblasts; test: Changes in morphology of untransformed cells; type: cell-based; conditions: FIG. 6E and F
Protocol: Compound 27A (denoted as BG269A in the figure) and compound 27B (denoted as BG269B in the figure) were added at 250 μM to test whether these compounds would induce reversion to a more normal phenotype as had been previously shown with microinjection of anti-Ras antibodies (see Feramisco, J. R. et al Nature 314, 639 (1985)). The H-ras transformed cells, denoted as rat 2.2 cells, were generated by transfection of rat-1 fibroblasts as described (see Seeburg, P. H., Colby, W. W., Capon, D. J., Goeddel, D. V., and Levinson, A. D. Nature 312,71 (1984)). Cells that overgrew the monolayer were extracted and plated onto agar to obtain a cell line displaying a fully transformed phenotype. Untransformed rat-1 fibroblasts and src-transformed rat-1 fibroblasts were also treated. The src-transformed cells were generated by co-transfection of rat-1 fibroblasts with pSV3.Neo.src, a vector containing the gene for src as well as the gene that confers G418 resistance, both under control of SV40 early promoters. G418-resistant cell clones that diplayed a transformed phenotype were used to generate the cell line. On day 0, cells were plated in monolayer culture at 3×10^3 cells per well (24-well plates) in 1 ml DMEM supplemented with 10% FCS, 100 U/ml penicillin, 10 μg/ml streptomycin, 2% DMSO, and 0.5 mM DTT with and without 200 μM inhibitor. On day 3, the cells were refed with the same medium. […]

[2] = test system: nuclear lamins A and B in Met18b-2 cells; test: [3H]mevalonate labeling of farnesylated nuclear lamins in Met18b-2 cells; type: cell-based, Chinese hamster; conditions: 250 μM; FIG. 3
Description: To study farnesylation in intact cells we used Met18b-2 cells, a line of Chinese hamster ovary (CHO) cells that takes up [3H]mevalonate efficiently (see Faust, J., and Krieger, M. J. Biol. Chem. 262, 1966 (1987)) owing to the production of a mevalonate transport protein (see Kim, C. M., Goldstein, J. L., Brown, M. S. J. Biol. Chem. 267, 23113 (1992)). The [3H]mevalonate is converted by the cells into [3H]farnesyl pyrophosphate and [3H]geranylgeranyl pyrophosphate, which are then attached to proteins (Kim, C. M., Goldstein, J. L., Brown, M. S. J. Biol. Chem. 267, 23113 (1992)). In the assay, stock cultures of Met18b-2 cells were seeded at a density of 3-105 cells per 60 mm dish in 3 ml of medium A (Dulbecco's modified Eagle medium/Ham's F12 medium (1:1, v/v) containing 100 U/ml penicillin and 100 μg/ml streptomycin) supplemented with 5% (v/v) fetal calf serum (FCS). On day 3, each monolayer was refed with 1 ml medium A supplemented with 1% FCS (dialyzed against 0.15 M NaCl). At this point the cells were treated with 100 μM compactin (see Brown, M. S., Faust, J. R., Goldstein, J. L., Kaneko, I., and Endo, A. J. Biol. Chem. 253, 1121 (1978)) which blocks the synthesis of unlabeled mevalonate within the cells. […] Protein concentrations were determined using the BCA protein assay reagent (Pierce) according to the manufacturer's instructions. […]

MCF-231 cells = test: Growth inhibition of human tumor line MCF-231; type: cell-based; conditions: MCF-231, breast (human), ras transformed, read-out: % growth inhib.
Protocol: To examine the effects of farnesyltransferase inhibition on cell growth, three cell lines (ras-transformed rat-1, src-transformed rat-1, and parental rat-1 cells) were seeded (see FIG. 7) at low density and allowed to grow for 10 days in the absence or presence of increasing concentrations of BZA-5B (compound 37). See Example 128 for description of cells. On day 0, cells were plated in monolayer culture at 2×10^3 cells per well (24-well plates) in 1 ml DMEM supplemented with 10% fetal calf serum, 100 U/ml penicillin, 100 μg/ml streptomycin, 0.5 mM DTT, 0.025% DMSO, and the indicated concentration of BZA-5B (compound 37). On days 3 and 7, cells were washed and refed with the same medium. At the time indicated in FIG. 7, cells were harvested by trypsinization and counted in a Coulter counter. Panels A, C, E show the growth rate of each cell line in the absence of inhibitor. Panels B, D, F show the inhibition of growth as a function of concentration of BZA-5B at each time point. […]
To examine the effects of farnesyltransferase inhibition on the growth of human tumor cell lines, several such lines were treated with 25 μM BZA-5B (compound 37B) using a procedure similar to that described in Example 129 above. Cells were refed with fresh media at days 3 and 6 containing the inhibitor, and were harvested and counted as described above. […]

Structure (SMILES) | effect on morphology of untransformed cells [1] | labeling of farnesylated lamins (F-NL) [2] | inhibition at 25 µM (MCF-231 cells) [%]
CSCC[C@H](NC(=O)CN1C(=O)C(N(C)C(=O)[C@@H](N)CS)N=C(c2ccccc2)c2ccccc21)C(=O)O (single isomer, unassigned) [27B] | no apparent effect on the morphology of untransformed rat-1 fibroblasts | reduced moderately the labeling of the farnesylated lamins | –
COC(=O)[C@H](CCSC)NC(=O)CN1C(=O)C(N(C)C(=O)[C@@H](N)CS)N=C(c2ccccc2)c2ccccc21 (single isomer, unassigned) [37B] | – | – | 58
